Results reported in ChEMBL document CHEMBL3243936, “Facile syntheses of potent dopaminergic argonists and their effect on neurotransmitter release” (J Med Chem, 1978).
The source made the active and inactive calls. The rule behind the calls is not given here.

Experiments:
[1] = target: Sodium-dependent dopamine transporter (Rattus norvegicus) (UniProt P23977); test: Agonist activity at Wistar rat striatum dopamine transporter assessed as tritium efflux by measuring [3H]dopamine release at 2 uM after 20 mins by liquid scintillation counting analysis relative to total tissue content
[2] = target: Sodium-dependent serotonin transporter (Rattus norvegicus) (UniProt P31652); test: Agonist activity at Wistar rat brain serotonin transporter assessed as tritium efflux by measuring [3H]serotonin release at 2 uM after 20 to 30 mins by liquid scintillation counting analysis relative to control
Rattus norvegicus = organism: Rattus norvegicus; test: Agonist activity at Wistar rat brain GABA transporter assessed as tritium efflux by measuring [3H]GABA release at 2 uM after 20 to 30 mins by liquid scintillation counting analysis relative to control
[3] = target: T1, Vesicular acetylcholine transporter (Rattus norvegicus) (UniProt Q62666); test: Agonist activity at Wistar rat brain cholinergic transporter assessed as tritium efflux by measuring [3H]choline release at 2 uM after 20 to 30 mins by liquid scintillation counting analysis relative to control
T1 sequence (whole entry): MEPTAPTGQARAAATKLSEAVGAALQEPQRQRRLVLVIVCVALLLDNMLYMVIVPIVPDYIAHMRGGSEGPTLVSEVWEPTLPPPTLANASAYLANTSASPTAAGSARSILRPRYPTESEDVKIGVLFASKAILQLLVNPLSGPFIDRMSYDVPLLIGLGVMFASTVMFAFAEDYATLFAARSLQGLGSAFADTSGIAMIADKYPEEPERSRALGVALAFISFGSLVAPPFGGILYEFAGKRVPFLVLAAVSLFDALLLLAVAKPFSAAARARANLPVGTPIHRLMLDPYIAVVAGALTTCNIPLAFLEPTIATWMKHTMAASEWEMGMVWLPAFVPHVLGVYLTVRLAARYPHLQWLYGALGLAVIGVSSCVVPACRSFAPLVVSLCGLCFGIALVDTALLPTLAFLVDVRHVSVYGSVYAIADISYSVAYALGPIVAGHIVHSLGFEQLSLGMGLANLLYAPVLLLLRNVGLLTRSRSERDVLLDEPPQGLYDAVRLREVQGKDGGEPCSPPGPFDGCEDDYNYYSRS

[4] = target: Sodium-dependent dopamine transporter (Rattus norvegicus) (UniProt P23977); test: Agonist activity at Wistar rat striatum dopamine transporter assessed as tritium efflux by measuring [3H]dopamine release at 1 uM after 20 to 30 mins by liquid scintillation counting analysis in presence of nomifensine
[5] = target: Sodium-dependent dopamine transporter (Rattus norvegicus) (UniProt P23977); test: Agonist activity at Wistar rat cortex dopamine transporter assessed as tritium efflux by measuring [3H]noradrenaline release at 1 uM after 20 to 30 mins by liquid scintillation counting analysis in presence of nomifensine; format: tissue-based

Chain of Sodium-dependent dopamine transporter (Rattus norvegicus) (P23977 whole entry): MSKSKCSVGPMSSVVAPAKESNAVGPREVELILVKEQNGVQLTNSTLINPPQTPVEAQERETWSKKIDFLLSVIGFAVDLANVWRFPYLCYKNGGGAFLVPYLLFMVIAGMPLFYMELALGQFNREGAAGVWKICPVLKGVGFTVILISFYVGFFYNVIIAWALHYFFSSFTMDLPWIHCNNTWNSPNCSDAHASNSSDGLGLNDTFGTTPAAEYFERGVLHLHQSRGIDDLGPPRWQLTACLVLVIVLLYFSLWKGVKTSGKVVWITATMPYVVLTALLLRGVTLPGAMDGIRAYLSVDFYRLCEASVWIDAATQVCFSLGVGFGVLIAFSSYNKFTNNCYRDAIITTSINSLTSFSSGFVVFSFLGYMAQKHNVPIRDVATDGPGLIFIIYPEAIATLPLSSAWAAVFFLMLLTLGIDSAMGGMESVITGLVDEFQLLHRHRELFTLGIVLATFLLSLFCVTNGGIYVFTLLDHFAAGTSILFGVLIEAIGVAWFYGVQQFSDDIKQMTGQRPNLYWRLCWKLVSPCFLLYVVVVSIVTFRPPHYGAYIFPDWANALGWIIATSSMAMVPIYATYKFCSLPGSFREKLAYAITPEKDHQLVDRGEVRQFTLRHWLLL
Chain of Sodium-dependent serotonin transporter (Rattus norvegicus) (P31652 whole entry): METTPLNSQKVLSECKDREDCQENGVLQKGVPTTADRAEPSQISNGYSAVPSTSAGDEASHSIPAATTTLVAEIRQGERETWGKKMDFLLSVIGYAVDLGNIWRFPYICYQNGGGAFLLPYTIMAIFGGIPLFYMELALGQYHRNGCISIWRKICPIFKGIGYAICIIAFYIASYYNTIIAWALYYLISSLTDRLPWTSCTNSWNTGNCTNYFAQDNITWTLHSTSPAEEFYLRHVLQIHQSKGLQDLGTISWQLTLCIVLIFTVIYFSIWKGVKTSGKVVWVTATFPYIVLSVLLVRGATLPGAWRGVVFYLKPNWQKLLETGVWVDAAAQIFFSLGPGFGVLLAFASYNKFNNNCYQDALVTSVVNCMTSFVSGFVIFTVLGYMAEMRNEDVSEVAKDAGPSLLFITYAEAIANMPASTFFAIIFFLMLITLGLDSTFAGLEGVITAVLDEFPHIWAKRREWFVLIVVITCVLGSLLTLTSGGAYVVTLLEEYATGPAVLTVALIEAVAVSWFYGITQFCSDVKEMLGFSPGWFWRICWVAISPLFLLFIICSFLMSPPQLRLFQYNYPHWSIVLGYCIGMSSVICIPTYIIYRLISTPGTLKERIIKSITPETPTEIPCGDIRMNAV

| Compound | Activity [1] [%] | Activity [2] | Activity (Rattus norvegicus) | Activity [3] | Activity [4] | Activity [5] |
| --- | --- | --- | --- | --- | --- | --- |
| NC1CCc2c(ccc(O)c2O)C1 (stereo unspecified) | 6.5 | inactive | inactive | inactive |  |  |
| NC1CCc2cc(O)c(O)cc2C1 (stereo unspecified) | 25.1 | inactive | inactive | inactive | inactive | inactive |
| NC1CCc2ccccc2C1 (stereo unspecified) | -0.7 |  |  |  |  |  |
